Measurements taken from PubChem BioAssay AID256 (DTP/NCI, 2004).
Inconclusive results and toxic doses are left out. Non-standard residues stand in square brackets, D forms with d. Residues, ends and D or L forms follow the SMILES beside them. Deg = CCC(N)(CC)C(=O)O

Tested on: CD2F1 mice, L1210 leukemia ip, survival T/C
Assay: NCI In Vivo Anticancer Drug Screen. Data for tumor model L1210 Leukemia (intraperitoneal) in CD2F1 (CDF1) mice
Conditions: higher = longer survival
Procedure, shortened: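 Activity against a transplanted murine tumor was judged by comparing the compound group with a vehicle group. The outcome in the treated animals was divided by that in the controls.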

[1] = endpoint: mean survival time, dose: 100.0 mg/kg/injection, schedule: Q04DX003 (ip), vehicle: saline with Tween-80
[2] = endpoint: mean survival time, dose: 200.0 mg/kg/injection, schedule: Q04DX003 (ip), vehicle: saline with Tween-80
[3] = endpoint: mean survival time, dose: 400.0 mg/kg/injection, schedule: Q04DX003 (ip), vehicle: saline with Tween-80
[4] = endpoint: mean survival time, dose: 100.0 mg/kg/injection, schedule: Q04DX002 (ip), vehicle: saline with Tween-80
[5] = endpoint: mean survival time, dose: 200.0 mg/kg/injection, schedule: Q04DX002 (ip), vehicle: saline with Tween-80
[6] = endpoint: mean survival time, dose: 400.0 mg/kg/injection, schedule: Q04DX002 (ip), vehicle: saline with Tween-80
[7] = endpoint: mean survival time, dose: 100.0 mg/kg/injection, schedule: Q01DX009 (ip), vehicle: saline with Tween-80
[8] = endpoint: mean survival time, dose: 200.0 mg/kg/injection, schedule: Q01DX009 (ip), vehicle: saline with Tween-80
[9] = endpoint: mean survival time, dose: 400.0 mg/kg/injection, schedule: Q01DX009 (ip), vehicle: saline with Tween-80
[10] = endpoint: mean survival time, dose: 50.0 mg/kg/injection, schedule: Q01DX009 (ip), vehicle: saline with Tween-80
[11] = endpoint: mean survival time, dose: 100.0 mg/kg/injection, schedule: Q01DX001 (ip), vehicle: saline with Tween-80
[12] = endpoint: mean survival time, dose: 100.0 mg/kg/injection, schedule: Q04DX003 (ip), vehicle: saline

In the case of `CCCCCCCCCC(C(=O)OCC)(C(=O)OCC)C1CCCC1`, the T/C (endpoint: mean survival time, dose: 100.0 mg/kg/injection, schedule: Q01DX001 (ip), vehicle: saline sonified) is reported as 106 % of control, the T/C [1] is reported as 100 % of control and the T/C (endpoint: mean survival time, dose: 200.0 mg/kg/injection, schedule: Q01DX001 (ip), vehicle: saline sonified) is reported as 100 % of control. For the same molecule, the T/C [2] was 100 % of control, the T/C (endpoint: mean survival time, dose: 400.0 mg/kg/injection, schedule: Q01DX001 (ip), vehicle: saline sonified) was 90 % of control and the T/C [3] was 97 % of control.
`CCCCCCCCCCCCCCCCC(Br)C(=O)c1ccccc1` (centres undefined) was tested, and the T/C [4] was 102 % of control, the T/C [5] was 95 % of control and the T/C [6] was 111 % of control.
For `CCCC(C#N)(CCCl)c1ccccc1` (centres undefined), the T/C [1] was 101 % of control, the T/C [2] was 101 % of control and the T/C [3] was 96 % of control.
In the case of `[C-]#[O+].[C-]#[O+].[C-]#[O+].[C-]#[O+].[C-]#[O+].[I][Re]`, the T/C (endpoint: mean survival time, dose: 50.0 mg/kg/injection, schedule: Q04DX002 (ip), vehicle: other) is reported as 123 % of control.
`O=S1(=O)Oc2cccc3cccc1c23` was tested, and the T/C [7] was 95 % of control, the T/C [1] was 102 % of control and the T/C [8] was 98 % of control. The T/C [2] was 102 % of control, the T/C [9] was 92 % of control and the T/C [3] was 103 % of control.
`[Na+]` was tested, and the T/C (endpoint: median survival time, dose: 25.0 mg/kg/injection, schedule: Q01DX009 (ip), vehicle: water) was 105 % of control, the T/C (endpoint: median survival time, dose: 50.0 mg/kg/injection, schedule: Q01DX009 (ip), vehicle: water) was 102 % of control and the T/C (endpoint: median survival time, dose: 100.0 mg/kg/injection, schedule: Q01DX009 (ip), vehicle: water) was 93 % of control. For the same molecule, the T/C (endpoint: median survival time, dose: 200.0 mg/kg/injection, schedule: Q01DX009 (ip), vehicle: water) was 100 % of control and the T/C (endpoint: median survival time, dose: 400.0 mg/kg/injection, schedule: Q01DX009 (ip), vehicle: water) was 105 % of control.
`CCN(CC)CC(=O)Nc1c(C)cccc1C` was tested, and the T/C (endpoint: mean survival time, dose: 25.0 mg/kg/injection, schedule: Q01DX009 (ip), vehicle: saline with Tween-80) was 95 % of control, the T/C [10] was 95 % of control and the T/C [7] was 89 % of control. For the same molecule, the T/C [1] was 95 % of control.
In the case of `CCOC(=O)C(Cc1ccccc1OC)P(=O)(OCC)OCC` (centres undefined), the T/C (endpoint: mean survival time, dose: 75.0 mg/kg/injection, schedule: Q01DX001 (ip), vehicle: saline) is reported as 100 % of control, the T/C (endpoint: mean survival time, dose: 150.0 mg/kg/injection, schedule: Q01DX001 (ip), vehicle: saline) is reported as 94 % of control and the T/C (endpoint: mean survival time, dose: 300.0 mg/kg/injection, schedule: Q01DX001 (ip), vehicle: saline) is reported as 96 % of control.
In the case of `O=C(CNC(=O)Nc1ccc(F)cc1)N/N=C/c1cc(Br)ccc1O`, the T/C [10] is reported as 100 % of control, the T/C [7] is reported as 96 % of control and the T/C [8] is reported as 88 % of control.
For `CC(C)CCCCN(CCCCC(C)C)CC(O)c1cc2c(c3ccccc13)CCCC2` (centres undefined), the T/C [11] was 94 % of control, the T/C (endpoint: mean survival time, dose: 200.0 mg/kg/injection, schedule: Q01DX001 (ip), vehicle: saline with Tween-80) was 97 % of control and the T/C (endpoint: mean survival time, dose: 400.0 mg/kg/injection, schedule: Q01DX001 (ip), vehicle: saline with Tween-80) was 102 % of control.
For `O=C1OC(=O)c2c1ccc1ccc(Cl)cc21`, the T/C [7] was 102 % of control and the T/C [8] was 96 % of control.
`Cc1cc(NCCCCCCNc2cc(C)[n+](C)c3c(Cl)cccc23)c2cccc(Cl)c2[n+]1C` was tested, and the T/C (endpoint: mean survival time, dose: 12.5 mg/kg/injection, schedule: Q01DX009 (ip), vehicle: Klucel (hydroxypropylcellulose) (HPC)) was 98 % of control, the T/C (endpoint: mean survival time, dose: 25.0 mg/kg/injection, schedule: Q01DX009 (ip), vehicle: Klucel (hydroxypropylcellulose) (HPC)) was 98 % of control and the T/C (endpoint: mean survival time, dose: 50.0 mg/kg/injection, schedule: Q01DX009 (ip), vehicle: Klucel (hydroxypropylcellulose) (HPC)) was 94 % of control.
`Cc1ccc(S(=O)(=O)OCCC=C(c2ccccc2)c2ccccc2)cc1` was tested, and the T/C [10] was 101 % of control, the T/C [7] was 101 % of control and the T/C [8] was 96 % of control.
With `O=C(Nc1ccccc1C(F)(F)F)n1c(=S)[nH]c2cc([N+](=O)[O-])ccc21` the T/C [10] was 90 % of control, the T/C [7] was 105 % of control and the T/C [8] was 94 % of control.
In the case of `Nc1nccc2c1nnn2C1OC(CO)C(O)C1O` (centres undefined), the T/C (endpoint: mean survival time, dose: 12.5 mg/kg/injection, schedule: Q01DX005 (ip), vehicle: water) is reported as 102 % of control, the T/C (endpoint: mean survival time, dose: 25.0 mg/kg/injection, schedule: Q01DX005 (ip), vehicle: water) is reported as 104 % of control and the T/C (endpoint: mean survival time, dose: 50.0 mg/kg/injection, schedule: Q01DX005 (ip), vehicle: water) is reported as 96 % of control. The T/C (endpoint: mean survival time, dose: 100.0 mg/kg/injection, schedule: Q01DX005 (ip), vehicle: water) was 102 % of control and the T/C (endpoint: mean survival time, dose: 200.0 mg/kg/injection, schedule: Q01DX005 (ip), vehicle: water) was 106 % of control.
`COc1ccccc1C=NC(C)(C)CO` was tested, and the T/C (endpoint: mean survival time, dose: 75.0 mg/kg/injection, schedule: Q01DX001 (ip), vehicle: other) was 102 % of control, the T/C (endpoint: mean survival time, dose: 150.0 mg/kg/injection, schedule: Q01DX001 (ip), vehicle: other) was 97 % of control and the T/C (endpoint: mean survival time, dose: 300.0 mg/kg/injection, schedule: Q01DX001 (ip), vehicle: other) was 97 % of control.
With `COC(OC)C1C2C3C=CC(C4C(=O)OC(=O)C34)C12` (centres undefined) the T/C [7] was 98 % of control, the T/C [1] was 97 % of control and the T/C [8] was 93 % of control. The T/C [2] was 110 % of control, the T/C [9] was 95 % of control and the T/C [3] was 103 % of control.
In the case of `COc1nn(O)cc2cc(C(=O)O)nc1-2`, the T/C (endpoint: mean survival time, dose: 12.5 mg/kg/injection, schedule: Q04DX002 (ip), vehicle: saline with Tween-80) is reported as 104 % of control, the T/C (endpoint: mean survival time, dose: 25.0 mg/kg/injection, schedule: Q04DX002 (ip), vehicle: saline with Tween-80) is reported as 104 % of control and the T/C (endpoint: mean survival time, dose: 50.0 mg/kg/injection, schedule: Q04DX002 (ip), vehicle: saline with Tween-80) is reported as 101 % of control.
With `CCCCCCCCC(=O)OCC1OC(n2cnc3c(N)nc(Cl)nc32)CC1O` (centres undefined) the T/C (endpoint: median survival time, dose: 40.0 mg/kg/injection, schedule: Q01DX009 (ip), vehicle: saline with Tween-80) was 161 % of control, the T/C (endpoint: median survival time, dose: 50.0 mg/kg/injection, schedule: Q01DX009 (ip), vehicle: saline with Tween-80) was 344 % of control and the T/C (endpoint: median survival time, dose: 60.0 mg/kg/injection, schedule: Q01DX009 (ip), vehicle: saline with Tween-80) was 177 % of control. The T/C (endpoint: median survival time, dose: 80.0 mg/kg/injection, schedule: Q01DX009 (ip), vehicle: saline with Tween-80) was 97 % of control and the T/C (endpoint: median survival time, dose: 100.0 mg/kg/injection, schedule: Q01DX009 (ip), vehicle: saline with Tween-80) was 102 % of control.
With `CCOC(=O)NCC(Cl)(Cl)Cl` the T/C (endpoint: mean survival time, dose: 37.5 mg/kg/injection, schedule: Q01DX009 (ip), vehicle: saline with Tween-80) was 98 % of control, the T/C (endpoint: mean survival time, dose: 75.0 mg/kg/injection, schedule: Q01DX009 (ip), vehicle: saline with Tween-80) was 98 % of control and the T/C (endpoint: mean survival time, dose: 150.0 mg/kg/injection, schedule: Q01DX009 (ip), vehicle: saline with Tween-80) was 102 % of control.
`CCOC(=O)C(=O)C[n+]1cc2ccccc2cc1/C=N/O` was tested, and the T/C [12] was 105 % of control, the T/C (endpoint: mean survival time, dose: 200.0 mg/kg/injection, schedule: Q04DX003 (ip), vehicle: saline) was 105 % of control and the T/C (endpoint: mean survival time, dose: 400.0 mg/kg/injection, schedule: Q04DX003 (ip), vehicle: saline) was 94 % of control.
For `O=Cc1ccc(/C=C2\C=Cc3ccccc32)cc1`, the T/C [7] was 101 % of control, the T/C [8] was 94 % of control and the T/C [9] was 103 % of control.
For `COc1nc(NC2OC(CO)C(O)C(O)C2O)c(C(C)=O)c(=O)n1C` (centres undefined), the T/C (endpoint: median survival time, dose: 12.5 mg/kg/injection, schedule: Q01DX005 (ip), vehicle: saline with Tween-80) was 94 % of control, the T/C (endpoint: median survival time, dose: 25.0 mg/kg/injection, schedule: Q01DX005 (ip), vehicle: saline with Tween-80) was 98 % of control and the T/C (endpoint: median survival time, dose: 50.0 mg/kg/injection, schedule: Q01DX005 (ip), vehicle: saline with Tween-80) was 100 % of control. The T/C (endpoint: median survival time, dose: 100.0 mg/kg/injection, schedule: Q01DX005 (ip), vehicle: saline with Tween-80) was 97 % of control and the T/C (endpoint: median survival time, dose: 200.0 mg/kg/injection, schedule: Q01DX005 (ip), vehicle: saline with Tween-80) was 98 % of control.
In the case of `O=C(O)Cc1ccc(Cl)cc1[N+](=O)[O-]`, the T/C (endpoint: mean survival time, dose: 100.0 mg/kg/injection, schedule: Q01DX001 (ip), vehicle: other) is reported as 113 % of control, the T/C (endpoint: mean survival time, dose: 200.0 mg/kg/injection, schedule: Q01DX001 (ip), vehicle: other) is reported as 107 % of control and the T/C (endpoint: mean survival time, dose: 400.0 mg/kg/injection, schedule: Q01DX001 (ip), vehicle: other) is reported as 98 % of control.
For `Cc1cccc(Nc2c3ccccc3nc3ccccc23)c1`, the T/C [11] was 100 % of control.
In the case of `OC[C@@H]1CCCN2CCCC[C@H]12`, the T/C (endpoint: mean survival time, dose: 25.0 mg/kg/injection, schedule: Q04DX003 (ip), vehicle: saline) is reported as 100 % of control, the T/C (endpoint: mean survival time, dose: 50.0 mg/kg/injection, schedule: Q04DX003 (ip), vehicle: saline) is reported as 107 % of control and the T/C [12] is reported as 105 % of control.
For `CCC(CC)(NC(=O)CN)C(=O)O` (H-Gly-[Deg]-OH), the T/C [4] was 96 % of control, the T/C [5] was 104 % of control and the T/C [6] was 96 % of control.
